Assay results taken from patent publication US5834259A, “Process and composition for preparing D-aspartic acid” (Monsanto Company, priority 1996, dated 1998).

Biological target: T1, L-aspartate-α-decarboxylase (Escherichia coli, UniProt P0A790)
T1 construct: expressed in transfected cells; host or cells: E. coli W3110 transformed with pIF309 = strain NS3291 (ATCC 98675), whole cells
Experiment: Activity towards D/L-glutamate and D/L-alanine, D/L-aspartate as control (Example 8)
Type: biochemical, E. coli K12
Settings: racemate substrate, pH 7.0
Method: D/L-aspartate was run as a control.
Substrates were prepared by dissolving solid amino acid racemate in approximately 75 ml deionized H2 O and adjusting the pH to 7.0 with 10N NaOH. The volume was then brought to 100 ml with deionized H2 O. The cells used were stored frozen for about 1 month and then thawed and stored in a refrigerator for about 1 month prior to running the experiments.
The reaction was run the same as described in the prior Examples. Samples of supernatant fluid, approximately 0.20 ml, were removed over time, centrifuged and stored frozen before analysis by HPLC as described in the prior Examples.

Structure (SMILES)	concentration in supernatant fluid (0 hr) [mg/mL]	concentration in supernatant fluid (3.5 hr) [mg/mL]	percent remaining (3.5 hr) [%]	concentration in supernatant fluid (8.5 hr) [mg/mL]	percent remaining (8.5 hr) [%]	concentration in supernatant fluid (24 hr) [mg/mL]	percent remaining (24 hr) [%]	concentration in supernatant fluid (55 hr) [mg/mL]	percent remaining (55 hr) [%]
C[C@@H](N)C(=O)O [D-Ala]	19.190	18.590	96.873	18.370	95.727	17.930	93.434	17.580	91.610
N[C@H](CCC(=O)O)C(=O)O [D-Glu]	29.440	29.010	98.539	29.520	100.27	29.350	99.694	29.840	101.36
C[C@H](N)C(=O)O [L-Ala]	19.320	18.960	98.137	18.730	96.946	18.320	94.824	17.830	92.288
N[C@@H](CCC(=O)O)C(=O)O [L-Glu]	29.350	28.400	96.763	28.740	97.922	28.200	96.082	28.000	95.400
